Laboratory results reported in patent US20230069804A1, “METHODS AND COMPOSITIONS FOR MODULATING SPLICING” (SkyHawk Therapeutics, Inc., priority 2019, published 2023).
Where two headings read alike, the source gives them in different places.

Key:
[1] = tested on: SMN2; experiment: Quantitative splicing assay (SMN) in SMA patient fibroblasts GM03813; assay type: cell-based; conditions: Homo sapiens, Fibroblast, SMA patient fibroblasts GM03813, 24 h; for IC50: read-out: SMN2 Potency - Splicing: Splicing D7 IC50 (average); for EC50: read-out: SMN2 Potency - Splicing: Splicing FL EC50 (average)
Experimental: Spinal muscular atrophy (SMA) patient fibroblasts (GM03813, Coriell) are plated in 96-well plates at 50,000 cells/well. Immediately after plating, cells are dosed with compounds for 24 h at concentrations ranging from 2.5 μM to 0.6 nM (0.1% DMSO). Treated cells are lysed and cDNA synthesized using the Fast Advanced Cells-to-Ct kit (Thermofisher A35378) according to the manufacturer's instructions. 2 μL of each cDNA are used in qPCR reactions. The qPCR reactions are prepared in 384-well plates in 10 μL volume, using TaqMan™ Fast Advanced Master Mix (ThermoFisher; 4444965) with primers and probes shown in the table below. Reactions are run in a Quant Studio 6 qPCR instrument with default settings.
It is to be understood that the absolute stereochemistry for compounds of Table 3 is not determined.

[2] = tested on: MDR1; experiment: MDCK-MDR1 permeability assay (BBB penetration potential); assay type: in vitro ADME; conditions: dog; for Papp A→B at 120 min, 5 μM / Papp B→A at 120 min, 5 μM: MDCK-MDR1, pH 7.4
Experimental: (§1) Each determination is performed in duplicate. […] Analytical conditions are outlined below.
(§2) Papp=(dCr/dt)×Vr/(A×CA) (1)

[3] = tested on: MDR1-MDCK cell monolayers; experiment: as above; assay type: in vitro ADME; conditions: 5 μM, 120 minutes; for MDCK-MDR1: % Recov A-B / MDCK-MDR1: % Recov B-A: pH 7.4
Experimental: as §1, §2

[4] = tested on: SMN protein; experiment: SMN protein assay (MSD) in SMA patient fibroblasts GM03813; assay type: cell-based; conditions: SMA patient fibroblasts GM03813, 48 hours
Experimental: Compounds were tested on spinal muscular atrophy (SMA) patient fibroblasts (GM03813, Coriell) at doses ranging from 2.5 μM to 0.6 nM. 7000 cells/well were seeded in 96-well plates. Compounds were incubated for 48 hours and the cells were lysed with 100 μL of lysis buffer. 20 μL of lysate was used for SMN protein measurement by Mesoscale Discovery (MSD) assay developed by PharmOptima (Michigan). A standard curve prepared with SMN protein ranging from 1 μg/ml to 19.5 pg/ml was used in each MSD plate to calculate the absolute SMN protein amount in each sample.

[5] = MDCK-MDR1, pH 7.4, Papp (B-to-A)/Papp (A-to-B), read-out: MDCK-MDR1: Efflux
[6] = Fibroblast, 48 h, read-out: SMN2 Potency - Protein: Protein FL EC50 (average)

SMILES | IC50 [1] [nM] | EC50 [1] [nM] | efflux ratio at 120 min, 5 μM [2, 5] | Papp A→B at 120 min, 5 μM ([2]; 5 μM, 120 minutes) [×10⁻⁶ cm/s] | Papp B→A at 120 min, 5 μM ([2]; 5 μM, 120 minutes) [×10⁻⁶ cm/s] | MDCK-MDR1: % Recov A-B [3] [%] | MDCK-MDR1: % Recov B-A [3] [%] | EC50 [4, 6] [nM] | efflux ratio at 120 min, 5 μM ([2]; MDCK-MDR1, pH 7.4, Papp (B-to-A)/Papp (A-to-B), 5 μM, 120 minutes, separated enantiomers, told apart by chiral retention time, read-out: MDCK MDRP1 Efflux Ratio) | MDCK MDRP1 Efflux Ratio ([3]; Papp (B-to-A)/Papp (A-to-B), separated enantiomers, told apart by chiral retention time) | EC50 ([4]; Fibroblast, 48 h, separated enantiomers, told apart by chiral retention time, read-out: SMN EC50) [nM] | EC50 ([4]; separated enantiomers, told apart by chiral retention time, read-out: SMN EC50) [nM]
CN(c1nnc(-c2ccc(-c3cnn(C)c3)cc2O)s1)[C@H]1C[C@@H]2CCC[C@@H](N2)[C@H]1F [Compound E-1B, 2-(5-(((1R,2R,3S,5S)-2-fluoro-9-azabicyclo[3.3.1]nonan-3-yl)(methyl)amino)-1,3,4-thiadiazol-2-yl)-5-(1-methyl-1H-pyrazol-4-yl)phenol] | 0.01 to 15 | 16 to 50 | 4 | 5.53 | 20.4 | 53 | 68 | 0.01 to 15 |  |  |  | 
CN(c1nnc(-c2ccc(-c3cnn(C)c3)cc2O)s1)[C@@H]1C[C@H]2CC[C@H](N2)[C@@H]1F [Compound E-3B, 2-(5-(((1S,2S,3R,5R)-2-fluoro-8-azabicyclo[3.2.1]octan-3-yl)(methyl)amino)-1,3,4-thiadiazol-2-yl)-5-(1-methyl-1H-pyrazol-4-yl)phenol] | 0.01 to 15 | 16 to 50 | 5 | 11.2 | 51.1 | 80 | 89 | 0.01 to 15 |  |  |  | 
COc1cc(-c2ccc(-c3nnc(N(C4CC4)[C@@H]4C[C@H]5CC[C@H](N5)[C@@H]4F)s3)c(O)c2)cc(F)n1 [Compound E-2A, 2-(5-(cyclopropyl((1S,2S,3R,5R)-2-fluoro-8-azabicyclo[3.2.1]octan-3-yl)amino)-1,3,4-thiadiazol-2-yl)-5-(2-fluoro-6-methoxypyridin-4-yl)phenol] | 0.01 to 15 | 16 to 50 | 6 | 2.07 | 12 | 19 | 45 | 0.01 to 15 |  |  |  | 
CN(c1nnc(-c2ccc(-c3ccn(CF)c(=O)c3)cc2O)s1)[C@H]1C[C@@H]2CC[C@@H](N2)[C@H]1F (single isomer, unassigned) [Compound E-15B] | 51 to 100 | 101 to 500 | 66 | 0.98 | 64.8 | 88 | 97 | 16 to 50 |  |  |  | 
CN(c1nnc(-c2ccc(-c3cnn(C)c3)cc2O)s1)[C@@H]1C[C@H]2CCC[C@H](N2)[C@@H]1F [Compound E-1A, 2-(5-(((1S,2S,3R,5R)-2-fluoro-9-azabicyclo[3.3.1]nonan-3-yl)(methyl)amino)-1,3,4-thiadiazol-2-yl)-5-(1-methyl-1H-pyrazol-4-yl)phenol] | 51 to 100 | 101 to 500 | 6 | 5.28 | 33.1 | 57 | 71 | 16 to 50 |  |  |  | 
COc1cc(-c2ccc(-c3nnc(N(C4CC4)[C@H]4C[C@@H]5CC[C@@H](N5)[C@H]4F)s3)c(O)c2)cc(F)n1 [Compound E-2B, 2-(5-(cyclopropyl((1R,2R,3S,5S)-2-fluoro-8-azabicyclo[3.2.1]octan-3-yl)amino)-1,3,4-thiadiazol-2-yl)-5-(2-fluoro-6-methoxypyridin-4-yl)phenol] | 16 to 50 | 51 to 100 | 5 | 1.87 | 9.89 | 16 | 44 | 0.01 to 15 |  |  |  | 
CN(c1nnc(-c2ccc(-c3cnn(C)c3)cc2O)s1)[C@H]1C[C@@H]2CC[C@@H](N2)[C@H]1F [Compound E-3A, 2-(5-(((1R,2R,3S,5S)-2-fluoro-8-azabicyclo[3.2.1]octan-3-yl)(methyl)amino)-1,3,4-thiadiazol-2-yl)-5-(1-methyl-1H-pyrazol-4-yl)phenol] | 101 to 500 | 101 to 500 | 3 | 10.5 | 35.2 | 77 | 85 | 16 to 50 |  |  |  | 
CN(c1nnc(-c2ccc(-c3cn[nH]c3)cc2O)s1)[C@@H]1C[C@H]2CC[C@H](N2)[C@@H]1F (single isomer, unassigned) [Compound E-7B] | 0.01 to 15 | 0.01 to 15 | 12 | 4.76 | 56 | 79 | 91 | 0.01 to 15 |  |  |  | 
CN(c1nnc(-c2cc(F)c(-c3cnn(C)c3)cc2O)s1)[C@@H]1C[C@H]2CC[C@H](N2)[C@@H]1F (single isomer, unassigned) [Compound E-9B] | 0.01 to 15 | 16 to 50 | 5 | 5.38 | 26 | 48 | 67 | 16 to 50 |  |  |  | 
CN(c1nnc(-c2ccc(-c3cnn(CF)c3)cc2O)s1)[C@@H]1C[C@H]2CC[C@H](N2)[C@@H]1F (single isomer, unassigned) [Compound E-10B] | 16 to 50 | 16 to 50 | 6 | 7.85 | 48.9 | 72 | 73 | 0.01 to 15 |  |  |  | 
CN(c1nnc(-c2ccc(-c3ccn(C)c(=O)c3)cc2O)s1)[C@@H]1C[C@H]2CC[C@H](N2)[C@@H]1F (racemic) [4A/4B, 4-[4-(5-{[(1S,2S,3R)-2-fluoro-8-azabicyclo[3.2.1]octan-3-yl](methyl)amino}-1,3,4-thiadiazol-2-yl)-3-hydroxyphenyl]-1-methyl-1,2-dihydropyridin-2-one and 4-[4-(5-{[(2R,3S,5S)-2-fluoro-8-azabicyclo[3.2.1]octan-3-yl](methyl)amino}-1,3,4-thiadiazol-2-yl)-3-hydroxyphenyl]-1-methyl-1,2-dihydropyridin-2-one] |  |  |  |  |  |  |  |  | 54 | 40 | 51 to 100 | 101 to 500
CN(c1nnc(-c2ccc(-c3cn[nH]c3)cc2O)s1)[C@H]1C[C@@H]2CC[C@H]([C@H]1F)N2C (single isomer, unassigned) [Compound E-23A] | 501 to 10000 | 501 to 10000 | 9 | 4.65 | 41.2 | 78 | 90 | 101 to 500 |  |  |  | 
CN(c1nnc(-c2cc(F)c(-c3cnn(C)c3)cc2O)s1)[C@H]1C[C@@H]2CC[C@@H](N2)[C@H]1F (single isomer, unassigned) [Compound E-9A] | 51 to 100 | 101 to 500 | 6 | 5.87 | 36.3 | 51 | 68 | 51 to 100 |  |  |  | 
CN(c1nnc(-c2cc(F)c(-c3cn[nH]c3)cc2O)s1)[C@H]1C[C@@H]2CC[C@@H](N2)[C@H]1F (single isomer, unassigned) [Compound E-6B] | 0.01 to 15 | 16 to 50 | 12 | 3.16 | 39.3 | 62 | 76 | 0.01 to 15 |  |  |  | 
COc1cc(-c2ccc(-c3nnc(N(C)[C@@H]4C[C@H]5CC[C@H](N5)[C@@H]4F)s3)c(O)c2)ncn1 (single isomer, unassigned) [Compound E-5A] | 51 to 100 | 51 to 100 | 2 | 7.8 | 19.1 | 41 | 61 | 16 to 50 |  |  |  | 
